#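 Step 1: Grow cells in 96-well plates. Step 2: Expose to compound for 48 hours at 5 concentrations. Step 3: Interpolate endpoints linearly; if unreached, use highest concentration. Abbreviation: GI50, concentration required for 50% inhibition of growth. At the TGI there is no net growth.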
# Tests used:
# Assay in all cases: growth of human tumour cells (NCI), 48 h
# HCC-2998 colon = system: HCC-2998 colon
# OVCAR-4 ovarian = system: OVCAR-4 ovarian
# NCI-H460 lung = system: NCI-H460 lung
# T-47D breast = system: T-47D breast
# HT29 colon = system: HT29 colon
# MDA-MB-231 breast = system: MDA-MB-231 breast
# OVCAR-5 ovarian = system: OVCAR-5 ovarian
# NCI-H522 lung = system: NCI-H522 lung
# KM12 colon = system: KM12 colon
# SNB-75 CNS = system: SNB-75 CNS
# UACC-62 melanoma = system: UACC-62 melanoma
# UACC-257 melanoma = system: UACC-257 melanoma
# HL-60(TB) leukemia = system: HL-60(TB) leukemia
# SK-MEL-5 melanoma = system: SK-MEL-5 melanoma
# SF-295 CNS = system: SF-295 CNS
# RXF 393 renal = system: RXF 393 renal
# A549 NSCLC = system: A549 NSCLC
# HOP-62 NSCLC = system: HOP-62 NSCLC
# SK-OV-3 ovarian = system: SK-OV-3 ovarian
# TK-10 renal = system: TK-10 renal
# NCI-H226 lung = system: NCI-H226 lung
# MDA-MB-468 breast = system: MDA-MB-468 breast
# HCT-15 colon = system: HCT-15 colon
# LOX IMVI melanoma = system: LOX IMVI melanoma
# OVCAR-3 ovarian = system: OVCAR-3 ovarian
# UO-31 renal = system: UO-31 renal
# U251 CNS = system: U251 CNS
# SF-539 CNS = system: SF-539 CNS
# SN12C renal = system: SN12C renal
# SW-620 colon = system: SW-620 colon
# PC-3 prostate = system: PC-3 prostate
# 786-0 renal = system: 786-0 renal
# MOLT-4 leukemia = system: MOLT-4 leukemia
# HS 578T breast = system: HS 578T breast
# EKVX NSCLC = system: EKVX NSCLC
# OVCAR-8 ovarian = system: OVCAR-8 ovarian
# SK-MEL-28 melanoma = system: SK-MEL-28 melanoma
# M14 melanoma = system: M14 melanoma
# K-562 leukemia = system: K-562 leukemia
# HOP-92 NSCLC = system: HOP-92 NSCLC
# DU-145 prostate = system: DU-145 prostate
# BT-549 breast = system: BT-549 breast
# NCI-H23 lung = system: NCI-H23 lung
# MALME-3M melanoma = system: MALME-3M melanoma
# HCT-116 colon = system: HCT-116 colon
# IGROV1 ovarian = system: IGROV1 ovarian
# MCF7 breast = system: MCF7 breast
# SR leukemia = system: SR leukemia
# A498 renal = system: A498 renal
# COLO 205 colon = system: COLO 205 colon
# SF-268 CNS = system: SF-268 CNS
# RPMI-8226 leukemia = system: RPMI-8226 leukemia
# ACHN renal = system: ACHN renal
# CCRF-CEM leukemia = system: CCRF-CEM leukemia
# MDA-MB-435 = system: MDA-MB-435
# CAKI-1 renal = system: CAKI-1 renal
# SNB-19 CNS = system: SNB-19 CNS
smiles,measurement,setting,value
CCCCSc1nc(NCCc2c[nH]c3ccccc23)c(C#N)c(-c2ccccc2)n1,GI50,HCC-2998 colon,7.92 µM
same,TGI,HCC-2998 colon,21.8 µM
same,GI50,OVCAR-4 ovarian,11.8 µM
same,TGI,OVCAR-4 ovarian,34.8 µM
same,GI50,NCI-H460 lung,4.2 µM
same,TGI,NCI-H460 lung,18.4 µM
same,GI50,T-47D breast,3.78 µM
same,TGI,T-47D breast,19.4 µM
same,GI50,HT29 colon,4.34 µM
same,TGI,HT29 colon,16.4 µM
same,GI50,MDA-MB-231 breast,11.1 µM
same,TGI,MDA-MB-231 breast,25.4 µM
same,GI50,OVCAR-5 ovarian,12.6 µM
same,TGI,OVCAR-5 ovarian,26 µM
same,GI50,NCI-H522 lung,15.5 µM
same,TGI,NCI-H522 lung,32.5 µM
same,GI50,KM12 colon,4.59 µM
same,TGI,KM12 colon,18 µM
same,GI50,SNB-75 CNS,14.1 µM
same,TGI,SNB-75 CNS,47 µM
same,GI50,UACC-62 melanoma,13.7 µM
same,TGI,UACC-62 melanoma,26.6 µM
same,GI50,UACC-257 melanoma,20.4 µM
same,TGI,UACC-257 melanoma,47 µM
same,GI50,HL-60(TB) leukemia,16 µM
same,TGI,HL-60(TB) leukemia,82.5 µM
same,GI50,SK-MEL-5 melanoma,9.88 µM
same,TGI,SK-MEL-5 melanoma,21.5 µM
same,GI50,SF-295 CNS,13.8 µM
same,TGI,SF-295 CNS,29.8 µM
same,GI50,RXF 393 renal,11.9 µM
same,TGI,RXF 393 renal,25.8 µM
same,GI50,A549 NSCLC,22 µM
same,TGI,A549 NSCLC,82.3 µM
same,GI50,HOP-62 NSCLC,12.8 µM
same,TGI,HOP-62 NSCLC,29.7 µM
same,GI50,SK-OV-3 ovarian,22.4 µM
same,TGI,SK-OV-3 ovarian,61.3 µM
same,GI50,TK-10 renal,26.1 µM
same,TGI,TK-10 renal,54.7 µM
same,GI50,NCI-H226 lung,12.4 µM
same,TGI,NCI-H226 lung,27.3 µM
same,GI50,MDA-MB-468 breast,5.3 µM
same,TGI,MDA-MB-468 breast,18.8 µM
same,GI50,HCT-15 colon,4.44 µM
same,TGI,HCT-15 colon,16.9 µM
same,GI50,LOX IMVI melanoma,4.48 µM
same,TGI,LOX IMVI melanoma,15.5 µM
same,GI50,OVCAR-3 ovarian,14.7 µM
same,TGI,OVCAR-3 ovarian,29.1 µM
same,GI50,UO-31 renal,14.6 µM
same,TGI,UO-31 renal,34.3 µM
same,GI50,U251 CNS,11.4 µM
same,TGI,U251 CNS,25.3 µM
same,GI50,SF-539 CNS,12.3 µM
same,TGI,SF-539 CNS,27.2 µM
same,GI50,SN12C renal,12.7 µM
same,TGI,SN12C renal,25.5 µM
same,GI50,SW-620 colon,6.48 µM
same,TGI,SW-620 colon,23.3 µM
same,GI50,PC-3 prostate,4.42 µM
same,TGI,PC-3 prostate,37.9 µM
same,GI50,786-0 renal,10.5 µM
same,TGI,786-0 renal,27 µM
same,GI50,MOLT-4 leukemia,5.73 µM
same,TGI,MOLT-4 leukemia,78.8 µM
same,GI50,HS 578T breast,12.5 µM
same,TGI,HS 578T breast,61.5 µM
same,GI50,EKVX NSCLC,10 µM
same,TGI,EKVX NSCLC,32.4 µM
same,GI50,OVCAR-8 ovarian,23.7 µM
same,TGI,OVCAR-8 ovarian,> 100 µM
same,GI50,SK-MEL-28 melanoma,14.5 µM
same,TGI,SK-MEL-28 melanoma,29.1 µM
same,GI50,M14 melanoma,12.3 µM
same,TGI,M14 melanoma,26.9 µM
same,GI50,K-562 leukemia,4.91 µM
same,TGI,K-562 leukemia,> 100 µM
same,GI50,HOP-92 NSCLC,5.54 µM
same,TGI,HOP-92 NSCLC,25.4 µM
same,GI50,DU-145 prostate,14.1 µM
same,TGI,DU-145 prostate,32.1 µM
same,GI50,BT-549 breast,12.3 µM
same,TGI,BT-549 breast,25.7 µM
same,GI50,NCI-H23 lung,12.8 µM
same,TGI,NCI-H23 lung,27.9 µM
same,GI50,MALME-3M melanoma,17.7 µM
same,TGI,MALME-3M melanoma,32.6 µM
same,GI50,HCT-116 colon,3.82 µM
same,TGI,HCT-116 colon,16.5 µM
same,GI50,IGROV1 ovarian,16 µM
same,TGI,IGROV1 ovarian,32.3 µM
same,GI50,MCF7 breast,5.26 µM
same,TGI,MCF7 breast,19.7 µM
same,GI50,SR leukemia,4.88 µM
same,TGI,SR leukemia,> 100 µM
same,GI50,A498 renal,16.2 µM
same,TGI,A498 renal,31.6 µM
same,GI50,COLO 205 colon,11.5 µM
same,TGI,COLO 205 colon,29.5 µM
same,GI50,SF-268 CNS,14.6 µM
same,TGI,SF-268 CNS,43.7 µM
same,GI50,RPMI-8226 leukemia,12.1 µM
same,TGI,RPMI-8226 leukemia,> 100 µM
same,GI50,ACHN renal,12.7 µM
same,TGI,ACHN renal,28.5 µM
same,GI50,CCRF-CEM leukemia,5.38 µM
same,TGI,CCRF-CEM leukemia,> 100 µM
same,GI50,MDA-MB-435,13.7 µM
same,TGI,MDA-MB-435,27.4 µM
same,GI50,CAKI-1 renal,5.56 µM
same,TGI,CAKI-1 renal,20.7 µM
same,GI50,SNB-19 CNS,17.2 µM
same,TGI,SNB-19 CNS,34.6 µM
